Series [1] relates to AMPA receptor. As to the kind of experiment: In vivo electrophysiology: amplitude of field EPSP in dentate gyrus of anesthetized animals. Set-up: species or system rat. Particulars: for In vivo Electrophysiology: % increase in the amplitude of the field EPSP in the dentate gyrus of rat: 10 mpk i.p. On the procedure: (§1) The electrophysiological effects of the invention compounds were tested in vivo in anesthetized animals according to the following procedures. Animals are maintained under anesthesia by phenobarbital administered using a Hamilton syringe pump. Stimulating and recording electrodes are inserted into the perforant path and dentate gyrus of the hippocampus, respectively. Once electrodes are implanted, a stable baseline of evoked responses are elicited using single monophasic pulses (100 μs pulse duration) delivered at 3/min to the stimulating electrode. Field EPSPs are monitored until a stable baseline is achieved (about 20-30 min), after which a solution of test compound is injected intraperitoneally and evoked field potentials are recorded. Evoked potentials were recorded for approximately 2 h following drug administration or until the amplitude of the field EPSP returns to baseline. In the latter instance, it is common that an iv administration is also carried out with an appropriate dose of the same test compound. Invention compounds were assayed in the in vivo electrophysiology assay described above and data for representative test compounds is shown in the Table.
The electrophysiological effects of invention compounds were tested in vivo in anesthetized animals according to the following procedures.
as §1, with “Animals” for “The electrophysiological effects of the invention compounds were tested in vivo in anesthetized animals according to the following procedures. Animals”, “are” for “were”, “compound.” for “compound. Invention compounds were assayed in the in vivo electrophysiology assay described above and data for representative test compounds is shown in the Table.”

As for `O=C(c1ccc2nonc2c1)N1C2CCC1COC2` [Example 1, [2,1,3]-Benzoxadiazol-5-yl(3-oxa-8-azabicyclo[3.2.1]oct-8-yl)methanone], the melting point (as a rule, the temperature, or range, at which the solid turns liquid) was 139 to 140 °C. Moreover, the “In vivo Electrophysiology: % increase in the amplitude of the field EPSP in the dentate gyrus of rat” value (shortened to “In vivo Electrophysiology: % increase”) in series [1] came to 17%.

In turn, `O=C(c1ccc2nonc2c1)N1C2CCCC1COC2` [Example 2, [2,1,3]-Benzoxadiazol-5-yl(3-oxa-9-azabicyclo[3.3.1]non-9-yl)methanone] yielded a melting point of 128 to 130 °C. Besides, the “In vivo Electrophysiology: % increase” value in series [1] is given as 16%.

With `O=C(c1ccc2nonc2c1)N1C2COCC1COC2` [Example 3, [2,1,3]-Benzoxadiazol-5-yl(3,7-dioxa-9-azabicyclo[3.3.1]non-9-yl)methanone], the melting point was 197 to 199 °C. Further, the “In vivo Electrophysiology: % increase” value in series [1] is reported as 15%.

As to `O=C(c1ccc2nccnc2c1)N1CCCCC1` [CX516, 1-(quinoxalin-6-ylcarbonyl)piperdine, reference compound], the “increase in amplitude of the field EPSP” value in series [1] (rat dentate gyrus, 50 mg/kg i.p.) is 9%.

Values taken from patent US8119632B2, “Bicyclic amide derivatives for enhancing glutamatergic synaptic responses” (Cortex Pharmaceuticals, Inc., priority 2007, dated 2012).
